Source: US6096725A, “Methods of using αGal oligosaccharides as immune system targeting agents” (Neose Technologies, Inc., priority 1997, dated 2000)
“Also recorded” adds a separate entry of the source. Read-outs that look alike come from different tables or passages of the source. Values belong to the compound of their own block, whether it stands above or below them.

Experiments:
[1] = test system: anti-αGal IgG and IgM antibodies; assay: In vitro mouse laminin ELISA: soluble oligosaccharides as neutralizers of anti-αGal antibodies; type: binding; conditions: serum pre-incubated with oligosaccharide 1 hour 37° C.; result in words
Excerpt: In vitro laminin ELISA evaluation of αGal oligosaccharides as neutralizers of anti-αGal antibodies. Mouse laminin is a basement membrane glycoprotein that expresses 50-70 oligosaccharides terminating in Galα1-3Gal, i.e., the αGal motif (Arumugham et al., 1986, Biochem. Biophys. Aeta 883:112). In this assay, immobilization of mouse laminin on microtiter plates serves as a capture ligand for anti-αGal antibodies. […] The example provides a method by which to determine the ability of αGal oligosaccharides and pharmaceutically acceptable derivative of the invention to bind to anti-αGal antibodies and to thereby remove these antibodies from the serum, neutralize anti-αGal antibodies, and/or target anti-αGal directed complement-mediated lytic attack to specific tissue or cell types. The example also provides a method by which the effectiveness of the methods of the invention can be evaluated and dosages determined.
Sera were mixed with serial dilutions of αGal oligosaccharides (αGal-CHO) at 37° C. for 1 hour, then added to mouse laminin-coated microtiter plates and incubated for 1 hour to allow binding. The microtiter plates were coated with 20 μg/mL mouse laminin in 50 mM NaHCO3 buffer, pH 9.5 at 4° C. overnight, blocked with SuperBlock solution (Pierce) for 2 hours, and then washed 3 times with SuperBlock solution. After washing excess serum away, bound IgG and IgM was measured by adding goat anti-human IgG (or IgM) conjugated to alkaline phosphatase and incubating for 1 hour, washing, and adding substrate (pNPP).

anti-αGal antibody [2] = conditions: Neethling et al., 1996; cited from earlier work
hyperacute rejection = conditions: cited from earlier work
[3] = test system: anti-αGal antibodies (serum IgG and IgM); assay: In vitro immobilized αGal pentasaccharide glycinamide ELISA; type: binding; conditions: baboon serum pre-incubated with oligosaccharide 1 hour 37° C.; result in words
Excerpt: In vitro immobilized αGal oligosaccharide ELISA analysis evaluation of anti-αGal antibody titer and of αGal oligosaccharides as neutralizers of anti-αGal antibodies. This example provides an assay that may be applied to determine the ability of αGal oligosaccharides and pharmaceutically acceptable derivative of the invention to bind to anti-αGal antibodies and to thereby remove these antibodies from the serum or plasma, neutralize anti-αGal antibodies, and/or target complement-mediated lytic attack to specific tissue or cell types. Such an ELISA is additionally useful in clinical monitoring of anti-αGal antibodies in blood of patients in advance of, and following xenotransplantation of organs from animals that express the αGal epitope.
The derivative of the αGal pentasaccharide (αGal pentasaccharide glycinamide) was synthesized and immobilized on N-oxysuccinimide microtiter plates (Costar) (0.5 mg/ml αGal pentasaccharide glycinamide) in bicarbonate buffer, pH 9.0, overnight at 4° C.; the plate was blocked first for 1 hour with 1M ethanolamine in the same buffer and secondly with phosphate buffered saline, pH 7.4, containing 1% bovine serum albumin and 0.05% Tween 20 and 0.02% NaN3 or PBNT. PBNT was used for all three subsequent plate washes and as a diluent for the antibodies. […] The optical density at 405 nm was recorded.

pig kidney cells, PK-15 = assay: In vitro cytotoxicity of human sera on PK-15 monolayers; type: cell-based; conditions: sera of individual humans; result in words
Experimental: Sera were incubated with serial dilutions of αGal oligosaccharides at 37° C. for 1 hour, then added to αGal-expressing monolayers (pig kidney cells, PK-15) in Terasaki plates for 1 hour at 37° C. Cytotoxicity was mediated by either endogenous complement, or the sera were de-complemented (heat inactivated for 30 minutes at 56° C.) and exogenous (rabbit) complement was added. After washing away excess serum, the viable dye mix "live-dead" (calcein AM/ethidium homodimer (Molecular Probes Inc., Eugene Oreg.)) was added and monolayers were scored for viability by fluorescence microscopy.

[4] = Pharmacokinetics after 15 minute intravenous bolus in baboons; type: in vivo, baboon; conditions: for clearance / half-life / Vd: baboon, plasma, iv, 500 umol/kg, 0.5 mMol/Kg 15 minute i.v. bolus; for Vd: read-out: Volume of Distribution
Experimental: The pharmacokinetics of the αGal trisaccharide compositions and the αGal pentasaccharide compositions were determined by delivering to one baboon by 15 minute intravenous bolus, 0.5 mMol/Kg of one oligosaccharide and 48 hours later, delivering 0.5 mmol/Kg of the second oligosaccharide, and for a second baboon, delivering the oligosaccharides according to the same procedure, but in the reverse order.
(§1) Three Baboons were outfitted with indwelling venous and arterial catheters to the femoral vessels, and held in place with the aid of a jacket. Oligosaccharides were administered through the catheter in a 15 minute continuous infusion.
The clearance is used to calculate the infusion rate needed to maintain a desired drug concentration. The half-life describes how quickly concentrations diminish with time. Mathematical formulations known in the art were applied to estimate the pharmacokinetic parameters of the αGal trisaccharide and αGal pentasaccharide. […] Compared to other drugs, the volumes of distribution of these oligosaccharides are low, less than the extravascular water volume (<400 mL/kg). The clearance is typical of compounds eliminated by GFR (glomerular filtration rate).

anti-αGal antibody [5] = assay: In vivo blood serum analysis: serum anti-αGal antibody neutralizing capacity in baboons; parameters: species or system baboon; conditions: monovalent oligosaccharide
Excerpt: Pharmokinetics of αGal trisaccharides and αGal pentasaccharides in baboons. This example presents a study of the pharmokinetic profile and serum anti-αGal antibody neutralizing capacity in baboons of αGal trisaccharides and αGal pentasaccharides and previews the compounds' suitability for use in the prevention of hyperacute rejection of porcine organs xenotransplanted into baboons.
as §1

[6] = to attain 0.5 mM steady state serum concentration
[7] = to attain 1.0 mM steady state serum concentration
[8] = to attain 2.0 mM steady state serum concentration

SMILES: CC(=O)N[C@H]1[C@H](O[C@H]2[C@@H](O)[C@@H](CO)O[C@@H](O[C@H]3[C@H](O)[C@@H](O)C(O)O[C@@H]3CO)[C@@H]2O)O[C@H](CO)[C@@H](O[C@@H]2O[C@H](CO)[C@H](O)[C@H](O)[C@H]2O)[C@@H]1O (some centres unmarked) [Galβ1-4GlcNAcβ1-3 Galβ1-4Glc]
Inhibition of anti-αGal IgG and IgM antibody binding to immobilized mouse laminin [1]: do not inhibit antibody binding

SMILES: OC[C@H]1O[C@H](O[C@H]2[C@@H](O)[C@@H](CO)OC(O)[C@@H]2O)[C@H](O)[C@@H](O)[C@H]1O (some centres unmarked) [αGal disaccharide, Galα1-3Gal]
Neutralization of anti-αGal antibody in vitro, in words (anti-αGal antibody [2]): effective in neutralizing the anti-αGal antibody in vitro

SMILES: OC[C@H]1O[C@@H](O[C@H]2[C@H](O)[C@@H](O)C(O)O[C@@H]2CO)[C@H](O)[C@@H](O)[C@H]1O (some centres unmarked) [lactose, galactoseβ1-4glucose]
Inhibition of anti-αGal IgG and IgM antibody binding to immobilized mouse laminin [1]: do not inhibit antibody binding

SMILES: OC[C@H]1O[C@H](OC[C@H]2OC(O)[C@H](O)[C@@H](O)[C@@H]2O)[C@H](O)[C@@H](O)[C@H]1O (some centres unmarked) [melibiose, Galα1-6Glu]
Prevention of hyperacute rejection on in vivo administration (hyperacute rejection; Ye et al., 1994): failed to prevent hyperacute rejection
Toxicity on in vivo administration (hyperacute rejection; necessary concentrations in pig/primate xenotransplantation): cytotoxic to other tissue; also recorded: proved highly toxic

SMILES: CC(=O)N[C@H]1C(O)O[C@H](CO)[C@@H](O[C@@H]2O[C@H](CO)[C@H](O)[C@H](O[C@H]3O[C@H](CO)[C@H](O)[C@H](O)[C@H]3O)[C@H]2O)[C@@H]1O (some centres unmarked) [αGal trisaccharide, Galα1-3Galβ1-4GlcNAc]
Inhibition of anti-αGal IgG and IgM antibody binding to immobilized mouse laminin [1]: slightly better inhibitor of IgG (FIG. 1A) and IgM (FIG. 1B) binding to laminin than αGal pentasaccharide
Neutralization of anti-αGal antibody in vitro, in words (anti-αGal antibody [2]): effective in neutralizing the anti-αGal antibody in vitro
Relative effectiveness in neutralizing anti-αGal antibody in vitro (anti-αGal antibody [2]): ten times more effective than the αGal disaccharide
Inhibition of serum cytotoxicity toward PK-15 cells (pig kidney cells, PK-15): slightly better inhibitor of cytotoxicity than αGal pentasaccharide; also recorded: inhibited slightly better by the αGal trisaccharide than by the αGal pentasaccharide
clearance ([4]; baboon 1003): 4.18 mL/min/kg
half-life ([4]; baboon 1003): 46.8 min
Vd ([4]; baboon 1003): 0.288 L/kg
clearance ([4]; baboon 1015): 4.88 mL/min/kg
half-life ([4]; baboon 1015): 51.5 min
Vd ([4]; baboon 1015): 0.362 L/kg
Calculated continuous infusion, total amount [4, 6]: 1.04 Kg/14 days
Calculated loading dose [4, 6]: 3.82 g/20 Kg baboon
Calculated loading dose (bolus or 15 min infusion) [4, 6]: 191 mg/kg
Calculated continuous infusion, total amount [4, 7]: 2.08 Kg/14 days
Calculated loading dose [4, 7]: 7.64 g/20 Kg baboon
Calculated loading dose (bolus or 15 min infusion) [4, 7]: 382 mg/kg
Calculated continuous infusion, total amount [4, 8]: 4.15 Kg/14 days
Calculated loading dose [4, 8]: 15.28 g/20 Kg baboon
Calculated loading dose (bolus or 15 min infusion) [4, 8]: 764 mg/kg
Minimal serum (circulating) concentration required to inhibit hyperacute rejection / be efficacious in vivo (anti-αGal antibody [5]): ≥ 1 mM

More lines, now with the values ahead:

Inhibition of anti-αGal IgG and IgM antibody binding to immobilized mouse laminin [1]: do not inhibit antibody binding
Inhibition of serum IgG and IgM binding to immobilized αGal pentasaccharide glycinamide [3]: minimally
SMILES: OC[C@H]1O[C@@H](O[C@@H]2[C@H](O)[C@@H](O)C(O)O[C@@H]2CO)[C@H](O)[C@@H](O)[C@H]1O (some centres unmarked) [Galβ1-4Gal]

Inhibition of anti-αGal IgG and IgM antibody binding to immobilized mouse laminin [1]: do not inhibit antibody binding
Inhibition of serum IgG and IgM binding to immobilized αGal pentasaccharide glycinamide [3]: not inhibited
SMILES: OC[C@H]1O[C@@](CO)(O[C@H]2O[C@H](CO)[C@@H](O)[C@H](O)[C@H]2O)[C@@H](O)[C@@H]1O [sucrose]
